Consider 3 molecules from patent US20230331718A1, “COMPOSITIONS FOR MODULATING SPLICING” (Skyhawk Therapeutics, Inc., priority 2020, published 2023).

One assay relates to SMN2 Protein. The assay is described as follows: SMN Protein Assay (MSD). The format is cell-based, human. The settings on record: SMA patient fibroblasts, 48 hours, 0.6 nM to 2.5 µM. In short, it runs like this: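 SMA patient fibroblasts at 7,000 cells/well treated 48 h with compound from 0.6 nM to 2.5 µM, then lysed. SMN protein in lysate quantified by Mesoscale Discovery immunoassay against an SMN standard curve (19.5 pg/ml–1 µg/ml), giving absolute amounts.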

Assay [1] relates to SMN2 Splicing D7 (SMN Δ7 transcript). The assay is described as follows: SMN Quantitative Splicing Assay (qPCR). The format is cell-based, human. The conditions noted are these: Homo sapiens, Fibroblast, 24 h, SMA patient fibroblasts (GM03813), 2.5 µM to 0.6 nM. As to the method:
Spinal muscular atrophy (SMA) patient fibroblasts (GM03813, Coriell) were plated in 96-well plates at 50,000 cells/well. […] Treated cells were lysed and cDNA synthesized using the Fast Advanced Cells-to-Ct kit (Thermofisher A35378) according to the manufacturer’s instructions. 2 µL of each cDNA were used in qPCR reactions. […] Reactions were run in a Quant Studio 6 qPCR instrument with default settings.
(In general: In qPCR the cycle at which signal appears reflects the starting amount.)

On to `Cc1coc2cc(-c3ncc(N(C)[C@@H]4CC5CCCC(N5)[C@@H]4F)nn3)c(O)cc2c1=O` (stereo partly drawn) [Compound 101], for which the EC50 in the assay on SMN2 Protein is 0.01 to 15 nM. This molecule displayed an IC50 in assay [1] of 0.01 to 15 nM.

On to `CN(c1cnc(-c2cc3c(F)cn(C)c(=O)c3cc2O)nn1)[C@@H]1CC2CC(F)(F)C(C1)N2` (stereo partly drawn) [Compound 209], for which the EC50 in the assay on SMN2 Protein was 101 to 500 nM. Also, the IC50 in assay [1] was in the range of 51 to 100 nM.

In the assay with SMN2 Protein, `Cc1cc(=O)c2cc(-c3ncc(N(C)[C@H]4C[C@@H]5CCC[C@@H](N5)[C@H]4F)nn3)c(O)cc2o1` [Compound 112] returned an EC50 of 16 to 50 nM. Further, the IC50 in assay [1] fell in the range of 16 to 50 nM.

Usually EC50 stands for the concentration needed to bring the measured effect to its halfway point. A word on the IC50: it is the point on the concentration scale where inhibition reaches its midpoint.
